In patent US9546157B2, “Asymmetric piperidinyl-substituted ureas as medicines” (Helsinn Healthcare SA, priority 2014, dated 2017):

Tests used:
GHSR1a [1] = target: T1, GHSR1a (Homo sapiens, UniProt Q92847); assay: Calcium FLIPR assay, GHSR-1a antagonism (reduction of ghrelin response); type: cell-based; conditions: HEK293/GHSR1a cells, ghrelin 10 nM
T1 construct: expressed in transfected cells; host or cells: HEK293
Method in brief: (§1)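 HEK293 cells expressing GHSR1a, seeded 24 hr earlier and loaded with calcium dye for 30-60 min at room temperature or 37° C, were read by FLIPR fluorescence. Agonism: compound added at t=20 sec, calcium followed 2 minutes. Antagonism: compound plus ghrelin (10 nM) at t=20 sec; potency from reduction of ghrelin response.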

GHSR1a [2] = target: T1, GHSR1a; assay: Calcium FLIPR assay, GHSR-1a agonism; type: cell-based; set-up: Emax: unit not given here; conditions: HEK293/GHSR1a cells
Method in brief: as §1

T1 sequence (Q92847 whole entry): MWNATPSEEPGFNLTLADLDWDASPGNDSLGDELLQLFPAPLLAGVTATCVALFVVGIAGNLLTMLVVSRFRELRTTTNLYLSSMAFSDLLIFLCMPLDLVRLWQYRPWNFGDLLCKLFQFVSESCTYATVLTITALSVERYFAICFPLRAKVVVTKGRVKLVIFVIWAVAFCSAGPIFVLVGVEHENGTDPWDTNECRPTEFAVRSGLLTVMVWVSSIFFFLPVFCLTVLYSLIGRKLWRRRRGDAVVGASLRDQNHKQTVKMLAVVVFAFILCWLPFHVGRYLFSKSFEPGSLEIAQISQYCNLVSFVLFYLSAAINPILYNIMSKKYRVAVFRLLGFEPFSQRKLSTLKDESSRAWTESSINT

Structure (SMILES)	IC50 (GHSR1a [1]) [µM]	EC50 (GHSR1a [2]) [µM]	Emax (GHSR1a [2])
CC(NC(=O)N(C)C1CCN(C)CC1)c1ccc(-c2cnc(CO)cn2)c(Cl)c1Cl (stereo not drawn) [Compound H0770, 3-(1-(2,3-dichloro-4-(5-(hydroxymethyl)pyrazin-2-yl)phenyl)ethyl)-1-methyl-1-(1-methylpiperidin-4-yl)urea]	0.7	0.294	1783
CC(NC(=O)N(C)C1CCN(C)CC1)c1ccc(-c2cnc(C(=O)N(C)C)cn2)c(Cl)c1Cl (stereo not drawn) [Compound H0771, 5-(2,3-dichloro-4-(1-(3-methyl-3-(1-methylpiperidin-4-yl)ureido)ethyl)phenyl)-N,N-dimethylpyrazine-2-carboxamide]	0.009	0.009	4662
CC(NC(=O)N(C)C1CCN(C)CC1)c1ccc(NC(=O)c2cccs2)c(Cl)c1Cl (stereo not drawn) [Compound H0772, N-(2,3-dichloro-4-(1-(3-methyl-3-(1-methylpiperidin-4-yl)ureido)ethyl)phenyl)thiophene-2-carboxamide]	0.003	0.007	3569
CC(NC(=O)N(C)C1CCN(C)CC1)c1ccc(C(=O)Nc2cccs2)c(Cl)c1Cl (stereo not drawn) [Compound H0773, 2,3-dichloro-4-(1-(3-methyl-3-(1-methylpiperidin-4-yl)ureido)ethyl)-N-(thiophen-2-yl)benzamide]	0.608	> 30	
CC(NC(=O)N(C)C1CCN(C)CC1)c1ccc(-c2sccc2C(N)=O)c(Cl)c1Cl (stereo not drawn) [Compound H0774, 2-(2,3-dichloro-4-(1-(3-methyl-3-(1-methylpiperidin-4-yl)ureido)ethyl)phenyl)thiophene-3-carboxamide]	3.4	> 30	
CC(NC(=O)N(C)C1CCN(C)CC1)c1ccc(C#Cc2ccc(CO)s2)c(Cl)c1Cl (stereo not drawn) [Compound H0775, 3-(1-(2,3-dichloro-4-((5-(hydroxymethyl)thiophen-2-yl)ethynyl)phenyl)ethyl)-1-methyl-1-(1-methylpiperidin-4-yl)urea]	0.074	> 5	
CC(NC(=O)N(C)C1CCN(C)CC1)c1ccc(C#Cc2ccc(C(N)=O)s2)c(Cl)c1Cl (stereo not drawn) [Compound H0776, 5-((2,3-dichloro-4-(1-(3-methyl-3-(1-methylpiperidin-4-yl)ureido)ethyl)phenyl)ethynyl)thiophene-2-carboxamide]	0.12	> 4	
CC(NC(=O)N(C)C1CCN(C)CC1)c1ccc(Nc2cccs2)c(Cl)c1Cl (stereo not drawn) [Compound H0777, 3-(1-(2,3-dichloro-4-(thiophen-2-ylamino)phenyl)ethyl)-1-methyl-1-(1-methylpiperidin-4-yl)urea]	0.715	0.6	2288
CC(NC(=O)N(C)C1CCN(C)CC1)c1ccc(-c2cncc(N)n2)c(Cl)c1Cl (stereo not drawn) [Compound H0780, 3-(1-(4-(6-aminopyrazin-2-yl)-2,3-dichlorophenyl)ethyl)-1-methyl-1-(1-methylpiperidin-4-yl)urea]	0.063	> 30	
CC(NC(=O)N(C)C1CCN(C)CC1)c1ccc(-c2ccnnc2)c(Cl)c1Cl (stereo not drawn) [Compound H0783, 3-(1-(2,3-dichloro-4-(pyridazin-4-yl)phenyl)ethyl)-1-methyl-1-(1-methylpiperidin-4-yl)urea]	0.681	0.03	
CC(NC(=O)N(C)C1CCN(C)CC1)c1ccc(NC(=O)Nc2cccs2)c(Cl)c1Cl (stereo not drawn) [Compound H0784, 3-(1-(2,3-dichloro-4-(4-(thiophen-2-yl)ureido)phenyl)ethyl)-1-methyl-1-(1-methylpiperidin-4-yl)urea]	0.529	> 30	
CC(NC(=O)N(C)C1CCN(C)CC1)c1ccc(C#CCc2cccs2)c(Cl)c1Cl (stereo not drawn) [Compound H0785, 3-(1-(2,3-dichloro-4-(3-(thiophen-2-yl)prop-1-yn-1-yl)phenyl)ethyl)-1-methyl-1-(1-methylpiperidin-4-yl)urea]	0.033	0.09	2869
CC(NC(=O)N(C)C1CCN(C)CC1)c1ccc(-c2cncc(CCl)n2)c(Cl)c1Cl (stereo not drawn) [Compound H0786, 3-(1-(2,3-dichloro-4-(6-(chloromethyl)pyrazin-2-yl)phenyl)ethyl)-1-methyl-1-(1-methylpiperidin-4-yl)urea]	0.855	0.242	980
CC(NC(=O)N(C)C1CCN(C)CC1)c1ccc2c(NC3CC3)noc2c1 (stereo not drawn) [Compound H0787, 3-(1-(3-(cyclopropylamino)benzo[d]isoxazol-6-yl)ethyl)-1-methyl-1-(1-methylpiperidin-4-yl)urea]	12	3	
CC(NC(=O)N(C)C1CCN(C)CC1)c1ccc(-c2cncc(C#N)n2)c(Cl)c1Cl (stereo not drawn) [Compound H0788, 3-(1-(2,3-dichloro-4-(6-cyanopyrazin-2-yl)phenyl)ethyl)-1-methyl-1-(1-methylpiperidin-4-yl)urea]	0.088	0.02	1230
COC(=O)c1cncc(-c2ccc(C(C)NC(=O)N(C)C3CCN(C)CC3)c(Cl)c2Cl)n1 (stereo not drawn) [Compound H0789, methyl 6-(2,3-dichloro-4-(1-(3-methyl-3-(1-methylpiperidin-4-yl)ureido)ethyl)phenyl)pyrazine-2-carboxylate]	0.284	0.026	1137
CC(NC(=O)N(C)C1CCN(C)CC1)c1ccc(C#N)c2ccccc12 (stereo not drawn) [Compound H0790, 3-(1-(4-cyanonaphthalen-1-yl)ethyl)-1-methyl-1-(1-methylpiperidin-4-yl)urea]	0.035	0.032	2810
CC(NC(=O)N(C)C1CCN(C)CC1)c1ccc(-c2cncc(Cl)n2)c(Cl)c1Cl (stereo not drawn) [Compound H0791, 3-(1-(2,3-dichloro-4-(6-chloropyrazin-2-yl)phenyl)ethyl)-1-methyl-1-(1-methylpiperidin-4-yl)urea]	0.075	> 30	
CC(NC(=O)N(C)C1CCN(C)CC1)c1ccc(-c2cnc(N)s2)c(Cl)c1Cl (stereo not drawn) [Compound H0792, 3-(1-(4-(2-aminothiazol-5-yl)-2,3-dichlorophenyl)ethyl)-1-methyl-1-(1-methylpiperidin-4-yl)urea]	0.016	0.007	1096
CC(NC(=O)N(C)C1CCN(C)CC1)c1ccc(-c2nccnn2)c(Cl)c1Cl (stereo not drawn) [Compound H0793, 3-(1-(2,3-dichloro-4-(1,2,4-triazin-3-yl)phenyl)ethyl)-1-methyl-1-(1-methylpiperidin-4-yl)urea]	0.021	0.022	3501
CC(NC(=O)N(C)C1CCN(C)CC1)c1ccc(-c2csc(N)n2)c(Cl)c1Cl (stereo not drawn) [Compound H0794, 3-(1-(4-(2-aminothiazol-4-yl)-2,3-dichlorophenyl)ethyl)-1-methyl-1-(1-methylpiperidin-4-yl)urea]	0.003	0.01	4435
CC(NC(=O)N(C)C1CCN(C)CC1)c1ccc(-c2nc(N3CCOCC3)nc(N3CCOCC3)n2)c(Cl)c1Cl (stereo not drawn) [Compound H0796, 3-(1-(2,3-dichloro-4-(4,6-dimorpholino-1,3,5-triazin-2-yl)phenyl)ethyl)-1-methyl-1-(1-methylpiperidin-4-yl)urea]	0.826	3	1671
